We go through 32 compounds from patent US20230104936A1, “TRPML MODULATORS” (Casma Therapeutics, Inc., priority 2019, published 2023).

For the assay, the system named is TFEB. The assay can be described thus: TFEB nuclear translocation assay, HeLa wt cells. The format is cell-based. The note with it: Homo sapiens, HeLa, 2 h, 2 hrs compound treatment, Table 1 does not say HeLa wt or TRPML1 KO. The procedure, abridged:
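HeLa wt or TRPML1 KO cells treated 2 hrs with compounds at 37° C, fixed in 4% PFA, immunostained with anti-TFEB plus Alexa 488 secondary and Hoechst. Imaged at ×20, four fields/well; read-out is nuclear/perinuclear-ring TFEB intensity ratio, reported as AC50.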

A value given as a limit tells only on which side of the number the result lay.

`CS(=O)(=O)c1ccc(S(=O)(=O)Nc2ccccc2N2CCC3(CC2)COc2cc(F)ccc23)cc1` [Compound A-319, N-(2-{6-fluoro-2H-spiro[1-benzofuran-3,4′-piperidin]-1′-yl}phenyl)-4-methanesulfonylbenzene-1-sulfonamide] had an AC50 not above 2 µM. With `CCOCCC1CCN(c2ccccc2NS(=O)(=O)c2ccc3c(c2)CC(C)(C)O3)CC1` [Compound A-631, N-{2-[4-(2-ethoxyethyl)piperidin-1-yl]phenyl}-2,2-dimethyl-2,3-dihydro-1-benzofuran-5-sulfonamide] the figure was not above 2 µM; with `Cc1nn(C)c(NS(=O)(=O)c2ccc(S(=O)(=O)N(C)C)cc2)c1C1CCN(c2ccc(Cl)cc2F)CC1` [Compound A-75, N1-(4-(1-(4-chloro-2-fluorophenyl)piperidin-4-yl)-1,3-dimethyl-1H-pyrazol-5-yl)-N4,N4-dimethylbenzene-1,4-disulfonamide], not below 10 µM; with `COC(C)(C)C(=O)N1CCN(c2ccccc2NS(=O)(=O)c2ccc(S(=O)(=O)N(C)C)cc2)CC1` [Compound A-431, N4-{2-[4-(2-methoxy-2-methylpropanoyl)piperazin-1-yl]phenyl}-N1,N1-dimethylbenzene-1,4-disulfonamide], 2.01 to 8 µM. The same measure for `COc1ccc(S(=O)(=O)Nc2ccccc2N2CCC(Oc3ccc(F)cc3F)C2)cc1` (centres unmarked) [Compound A-202, N-{2-[3-(2,4-difluorophenoxy)pyrrolidin-1-yl]phenyl}-4-methoxybenzene-1-sulfonamide]: not below 10 µM. With `COCCOCCOCCN(C)S(=O)(=O)c1ccc(S(=O)(=O)Nc2ccccc2N2CCC(c3ccc(Cl)cc3F)CC2)cc1` [Compound A-587, N4-{2-[4-(4-chloro-2-fluorophenyl)piperidin-1-yl]phenyl}-N1-{2-[2-(2-methoxyethoxy)ethoxy]ethyl}-N1-methylbenzene-1,4-disulfonamide] the figure was 2.01 to 8 µM; with `O=S(=O)(Nc1ccccc1N1CCC(c2ccc(Cl)cc2F)CC1)c1ccc(C(O)C(F)(F)F)cc1` (centres unmarked) [Compound A-157, N-{2-[4-(4-chloro-2-fluorophenyl)piperidin-1-yl]phenyl}-4-(2,2,2-trifluoro-1-hydroxyethyl)benzene-1-sulfonamide], not above 2 µM; with `O=S(=O)(Nc1cc(Cl)ccc1N1CCC2(CCCO2)CC1)c1ccc2c(c1)CCC2` [Compound A-328, N-(5-chloro-2-{1-oxa-8-azaspiro[4.5]decan-8-yl}phenyl)-2,3-dihydro-1H-indene-5-sulfonamide], not below 10 µM. For `O=S(=O)(Nc1cc(Cl)ccc1N1CC2(CCC2)C1C1CCCO1)c1ccc2c(c1)CCC2` (centres unmarked) [Compound A-397, N-{5-chloro-2-[1-(oxolan-2-yl)-2-azaspiro[3.3]heptan-2-yl]phenyl}-2,3-dihydro-1H-indene-5-sulfonamide], the AC50 fell in the range of 2.01 to 8 µM. The same measure for `COCC1(C)CCN(c2ccccc2NS(=O)(=O)c2ccc3c(c2)CCC(C(F)F)O3)CC1` (centres unmarked) [Compound A-644, 2-(difluoromethyl)-N-{2-[4-(methoxymethyl)-4-methylpiperidin-1-yl]phenyl}-3,4-dihydro-2H-1-benzopyran-6-sulfonamide]: 2.01 to 8 µM; for `CN(C)S(=O)(=O)c1ccc(S(=O)(=O)Nc2ccccc2N2CCC3(COC(C)(C)C3)CC2=O)cc1` (centres unmarked) [Compound A-735, N4-(2-{3,3-dimethyl-7-oxo-2-oxa-8-azaspiro[4.5]decan-8-yl}phenyl)-N1,N1-dimethylbenzene-1,4-disulfonamide]: not below 10 µM.

For `C[C@@H]1CN(CC2CCN(c3c(F)cccc3NS(=O)(=O)C3(c4ccccc4)CC3)CC2)C[C@H](C)O1` [Compound A-767, N-[2-(4-{[(2R,6S)-2,6-dimethylmorpholin-4-yl]methyl}piperidin-1-yl)-3-fluorophenyl]-1-phenylcyclopropane-1-sulfonamide], the AC50 is not above 2 µM. The same measure for `COCC1(C)CCN(c2ccccc2NS(=O)(=O)c2ccc(C(F)F)cc2)CC1` [Compound A-620, 4-(difluoromethyl)-N-{2-[4-(methoxymethyl)-4-methylpiperidin-1-yl]phenyl}benzene-1-sulfonamide]: not above 2 µM; for `CC(C)(C)C(=O)N1CCN(c2ccccc2NS(=O)(=O)c2ccc(OC(F)(F)F)cc2)CC1` [Compound A-568, N-{2-[4-(2,2-dimethylpropanoyl)piperazin-1-yl]phenyl}-4-(trifluoromethoxy)benzene-1-sulfonamide]: 8.01 to 9.99 µM; for `CC1(C)CC2(CCN(c3ccccc3NS(=O)(=O)c3ccc(OC(F)F)c(F)c3)CC2)CO1` [Compound A-667, 4-(difluoromethoxy)-N-(2-{3,3-dimethyl-2-oxa-8-azaspiro[4.5]decan-8-yl}phenyl)-3-fluorobenzene-1-sulfonamide]: 2.01 to 8 µM.

Consider `CC(c1cccc(F)c1N1CCCCC1)S(=O)(=O)c1ccc(S(=O)(=O)N(C)C)cc1` (single isomer, unassigned) [Compound A-911, 4-((1-(3-fluoro-2-(piperidin-1-yl)phenyl)ethyl)sulfonyl)-N,N-dimethylbenzenesulfonamide], for which the AC50 is not above 2 µM. With `CC1(C)CC2(CCN(c3ccccc3NS(=O)(=O)c3ccc4c(c3)OC3(CCC3)O4)CC2)CO1` [Compound A-723, N-(2-{3,3-dimethyl-2-oxa-8-azaspiro[4.5]decan-8-yl}phenyl)spiro[1,3-benzodioxole-2,1′-cyclobutane]-6-sulfonamide] the figure was not above 2 µM. The compound `CC(c1cccnc1)N1CCN(c2ccccc2NS(=O)(=O)c2ccc(S(=O)(=O)N(C)C)cc2)CC1` (centres unmarked) [Compound A-505, N1,N1-dimethyl-N4-(2-{4-[1-(pyridin-3-yl)ethyl]piperazin-1-yl}phenyl)benzene-1,4-disulfonamide] displayed an AC50 of 2.01 to 8 µM. The same measure for `O=S(=O)(Nc1ccccc1N1CCC(c2ccc(Cl)cc2F)CC1)c1ccc(Cl)cc1` [Compound A-73, 4-chloro-N-{2-[4-(4-chloro-2-fluorophenyl)piperidin-1-yl]phenyl}benzene-1-sulfonamide]: not above 2 µM; for `CN1CC2(CCN(c3ccccc3N(C)S(=O)(=O)c3ccc(S(C)(=O)=O)cc3)CC2)c2ccc(F)cc21` [Compound A-307, N-(2-{6-fluoro-1-methyl-1,2-dihydrospiro[indole-3,4′-piperidin]-1′-yl}phenyl)-4-methanesulfonyl-N-methylbenzene-1-sulfonamide]: 2.01 to 8 µM. With `O=S(=O)(Nc1cc(Cl)ccc1N1CCCC2(COC2)C1)c1ccc2c(c1)CCC2` [Compound A-345, N-(5-chloro-2-{2-oxa-6-azaspiro[3.5]nonan-6-yl}phenyl)-2,3-dihydro-1H-indene-5-sulfonamide] the figure was 2.01 to 8 µM; with `CS(=O)(=O)c1ccc(S(=O)(=O)Nc2ccccc2N2CCC(c3c(F)cccc3F)CC2)cc1` [Compound A-124, N-{2-[4-(2,6-difluorophenyl)piperidin-1-yl]phenyl}-4-methanesulfonylbenzene-1-sulfonamide], not above 2 µM.

In turn, `Cc1cc(Cl)c(N2CCOCC2)c(NS(=O)(=O)c2ccc(S(=O)(=O)N(C)C)cc2)c1` [Compound A-888, N4-[3-chloro-5-methyl-2-(morpholin-4-yl)phenyl]-N1,N1-dimethylbenzene-1,4-disulfonamide] returned a half-maximal activity concentration (AC50) of 2.01 to 8 µM. With `CN(C)S(=O)(=O)c1ccc(S(=O)(=O)Nc2ccccc2N2CCN(CCF)CC2)cc1` [Compound A-559, N4-{2-[4-(2-fluoroethyl)piperazin-1-yl]phenyl}-N1,N1-dimethylbenzene-1,4-disulfonamide] the figure was 2.01 to 8 µM. With `CN(C)S(=O)(=O)c1ccc(S(=O)(=O)Nc2ccccc2N2CCC(COCC(F)F)CC2)cc1` [Compound A-730, N4-(2-{4-[(2,2-difluoroethoxy)methyl]piperidin-1-yl}phenyl)-N1,N1-dimethylbenzene-1,4-disulfonamide] the figure was not above 2 µM. With `CCOC(=O)N1CCN(c2ccccc2NS(=O)(=O)c2ccc(S(=O)(=O)N(C)C)cc2)CC1` [Compound A-308, ethyl 4-{2-[4-(dimethylsulfamoyl)benzenesulfonamido]phenyl}piperazine-1-carboxylate] the figure was 2.01 to 8 µM; with `CN(C)S(=O)(=O)c1ccc(S(=O)(=O)Nc2cccc(F)c2N2CCC3(CC2)COC(C)(C)C3)cc1` [Compound A-615], not above 2 µM; with `COc1ccc(S(=O)(=O)Nc2ccccc2N2CC(Oc3ccc(F)cc3F)C2)cc1` [Compound A-200, N-{2-[3-(2,4-difluorophenoxy)azetidin-1-yl]phenyl}-4-methoxybenzene-1-sulfonamide], 2.01 to 8 µM. As for `C[C@@H]1CN(CC2CCN(c3c(F)cccc3[C@@H](C)S(=O)(=O)c3ccc(S(=O)(=O)N(C)C)cc3)CC2)C[C@H](C)O1` [Compound A-782, 4-[(1R)-1-[2-(4-{[(2R,6S)-2,6-dimethylmorpholin-4-yl]methyl}piperidin-1-yl)-3-fluorophenyl]ethanesulfonyl]-N,N-dimethylbenzene-1-sulfonamide], the AC50 is not above 2 µM. The same measure for `CN(C)S(=O)(=O)c1ccc(S(=O)(=O)Nc2ccccc2N2CCCN(C(=O)C(C)(C)C)CC2)cc1` [Compound A-480, N4-{2-[4-(2,2-dimethylpropanoyl)-1,4-diazepan-1-yl]phenyl}-N1,N1-dimethylbenzene-1,4-disulfonamide]: 2.01 to 8 µM; for `CN(C)S(=O)(=O)c1ccc(S(=O)(=O)Cc2ccccc2N2CCN(Cc3ccccc3)CC2)cc1` [Compound A-406, 4-((2-(4-benzylpiperazin-1-yl)benzyl)sulfonyl)-N,N-dimethylbenzenesulfonamide]: 2.01 to 8 µM. The compound `COC(C)(C)c1ccc(S(=O)(=O)Nc2ccccc2N2CCC3(CC2)COC(C)(C)C3)cc1` [Compound A-656, N-(2-{3,3-dimethyl-2-oxa-8-azaspiro[4.5]decan-8-yl}phenyl)-4-(2-methoxypropan-2-yl)benzene-1-sulfonamide] displayed an AC50 of 2.01 to 8 µM.

As a reminder, the AC50 is the midpoint of the concentration-response curve, whichever way the signal moves. Higher therefore signals weaker potency.
